Residues, ends and D or L forms follow the SMILES beside them. *: point of attachment. Succinyl(4-O-cholesteryl) = CC(C)CCC[C@@H](C)[C@H]1CC[C@H]2[C@@H]3CC=C4C[C@@H](OC(=O)CCC(=O)*)CC[C@]4(C)[C@H]3CC[C@]12C
Legend:
[1] = system: HIV-1JRFL pseudovirus; type: cell-based; details: TZM-b1 cells, 100 TCID50, 48 hours
Excerpt: (§1) HIV-1JRFL Env expression vectors and backbone plasmas (pSG3 ΔEnv) and TZM-bl cells were described in the following literature: Xue, J., Chong, H., Zhu, Y, Zhang, J., Tong, L., Lu, J., Chen, T., Cong, Z., Wei, Q., He, Y., 2022. Efficient treatment and pre-exposure prophylaxis in rhesus macaques by an HIV fusion-inhibitory lipopeptide. Cell 185, 131-144 e118. The HIV-1JRFL Env expression vector and the backbone plasmas (pSG3 ΔEnv) were co-transfected into HEK293T cells, and the transfected cells were cultured in a cell culture incubator at 37 °C and 5% CO2 for 48 hours, and then the supernatant was collected and filtered to collect the filtrate. The resulting filtrate was a virus solution containing HIV-1JRFL pseudovirus particles (called as HIV-1JRFL virus solution), which was preserved at -80 °C for later use.
Test virus solution: HIV-1NL4-3 virus solution or HIV-1JRFL virus solution. • 1. A test lipopeptide was dissolved in deionized water and then diluted with DMEM medium (using 3-fold dilution) to obtain a lipopeptide diluent. 9 dilutions were set for each test lipopeptide. • 2. In a 96-well plate, the lipopeptide diluent (50 µL/well) was added to drug wells and the DMEM medium (50 µL/well) was added to control wells. Each well was set with three duplicate wells. • 3. After step 2 was finished, a test virus solution (50 µL/well, a virus content of 100 TCID50) was added to the 96-well plate and incubated at room temperature for 30 minutes. • 4. After step 3 was finished, a TZM-b1 cell suspension (100 µL/well) was added to the 96-well plate and cultured for 48 hours in a cell culture incubator at 37 °C and 5% CO2. Preparation method of the TZM-b1 cell suspension: TZM-b1 cells were re-suspended in a DMEM medium and DEAE-dextran was added thereto such that the cell concentration was 10×10^4 cells/mL and the DEAE-dextran concentration was 15 µg/mL. • 5. […] Relative luminescence units (RLU) were measured by a microplate luminometer, an inhibition rate curve was made, and the half-maximal inhibition concentration (IC50) of the drug was calculated. […]

[2] = system: HIV-1NL4-3 pseudovirus; type: cell-based; details: TZM-b1 cells, 100 TCID50, 48 hours
Excerpt: as §1
The preparation method of the HIV-1NL4-3 virus solution (i.e., the virus solution containing HIV-1NL4-3 pseudovirus particle) was basically the same as that of the HIV-1JRFL virus liquid, except that the HIV-1JRFL Env expression vector was replaced with HIV-1NL4-3 Env expression vector. […]
Test virus solution: HIV-1NL4-3 virus solution or HIV-1JRFL virus solution. • 1. […] Relative luminescence units (RLU) were measured by a microplate luminometer, an inhibition rate curve was made, and the half-maximal inhibition concentration (IC50) of the drug was calculated. […]

SMILES	IC50 [1]	IC50 [2]
CC[C@H](C)[C@H](NC(=O)[C@H](CCCCN)NC(=O)[C@H](CCC(N)=O)NC(=O)[C@H](CCC(=O)O)NC(=O)[C@H](Cc1ccc(O)cc1)NC(C)=O)C(=O)N[C@@H](CCC(=O)O)C(=O)N[C@@H](CCC(=O)O)C(=O)N[C@@H](CC(C)C)C(=O)N[C@@H](CC(C)C)C(=O)N[C@@H](CCCCN)C(=O)N[C@@H](CCCCN)C(=O)N[C@@H](C)C(=O)N[C@@H](CCC(=O)O)C(=O)N[C@@H](CCC(=O)O)C(=O)N[C@@H](CCC(N)=O)C(=O)N[C@@H](CCC(N)=O)C(=O)N[C@@H](CCCCN)C(=O)N[C@@H](CCCCN)C(=O)N[C@@H](CC(N)=O)C(=O)N[C@@H](CCC(=O)O)C(=O)N[C@@H](CCC(=O)O)C(=O)N[C@@H](CCC(=O)O)C(=O)N[C@@H](CC(C)C)C(=O)N[C@@H](CCCCN)C(=O)N[C@@H](CCCCN)C(=O)N[C@@H](CC(C)C)C(=O)N[C@@H](CCC(=O)O)C(=O)N[C@@H](CCCCNC(=O)CCC(=O)O[C@H]1CC[C@@]2(C)C(=CC[C@H]3[C@@H]4CC[C@H]([C@H](C)CCCC(C)C)[C@@]4(C)CC[C@@H]32)C1)C(N)=O [LP-98, reference compound] (Ac-YEQKIEELLKKAEEQQKKNEEELKKLEK(Succinyl(4-O-cholesteryl))-NH2)	2.58 pM	1.07 pM
CC[C@H](C)[C@H](NC(=O)[C@H](CCC(=O)O)NC(C)=O)C(=O)N[C@@H](CCC(=O)O)C(=O)N[C@@H](CCC(=O)O)C(=O)N[C@@H](CC(C)C)C(=O)N[C@@H](CCC(=O)O)C(=O)N[C@@H](CCCCN)C(=O)N[C@@H](CCCCN)C(=O)N[C@H](C(=O)N[C@@H](CCC(=O)O)C(=O)N[C@@H](CCC(=O)O)C(=O)N[C@@H](CC(C)C)C(=O)N[C@@H](CC(C)C)C(=O)N[C@@H](CCCCN)C(=O)N[C@@H](CCCCN)C(=O)N[C@@H](C)C(=O)N[C@@H](CCC(=O)O)C(=O)N[C@@H](CCC(=O)O)C(=O)N[C@@H](CCC(N)=O)C(=O)N[C@@H](CCC(N)=O)C(=O)N[C@@H](CCCCN)C(=O)N[C@@H](CCCCN)C(=O)N[C@@H](CC(N)=O)C(=O)N[C@@H](CCC(=O)O)C(=O)N[C@@H](CCC(=O)O)C(=O)N[C@@H](CCC(=O)O)C(=O)N[C@@H](CC(C)C)C(=O)N[C@@H](CCCCN)C(=O)N[C@@H](CCCCN)C(=O)N[C@@H](CC(C)C)C(=O)N[C@@H](CCC(=O)O)C(=O)N[C@@H](CCCCNC(=O)CCC(=O)O[C@H]1CC[C@@]2(C)C(=CC[C@H]3[C@@H]4CC[C@H]([C@H](C)CCCC(C)C)[C@@]4(C)CC[C@@H]32)C1)C(N)=O)[C@@H](C)CC [LP-101] (Ac-EIEELEKKIEELLKKAEEQQKKNEEELKKLEK(Succinyl(4-O-cholesteryl))-NH2)	2.26 pM	–
CC[C@H](C)[C@H](NC(=O)[C@H](CCCCN)NC(=O)[C@H](CCCCN)NC(=O)[C@H](CCC(=O)O)NC(=O)[C@H](Cc1c[nH]c2ccccc12)NC(=O)[C@H](CCC(=O)O)NC(=O)[C@H](CCC(=O)O)NC(=O)[C@H](Cc1c[nH]c2ccccc12)NC(C)=O)C(=O)N[C@@H](CCC(=O)O)C(=O)N[C@@H](CCC(=O)O)C(=O)N[C@@H](CC(C)C)C(=O)N[C@@H](CCC(=O)O)C(=O)N[C@@H](CCCCN)C(=O)N[C@@H](CCCCN)C(=O)N[C@H](C(=O)N[C@@H](CCC(=O)O)C(=O)N[C@@H](CCC(=O)O)C(=O)N[C@@H](CC(C)C)C(=O)N[C@@H](CC(C)C)C(=O)N[C@@H](CCCCN)C(=O)N[C@@H](CCCCN)C(=O)N[C@@H](C)C(=O)N[C@@H](CCC(=O)O)C(=O)N[C@@H](CCC(=O)O)C(=O)N[C@@H](CCC(N)=O)C(=O)N[C@@H](CCC(N)=O)C(=O)N[C@@H](CCCCN)C(=O)N[C@@H](CCCCN)C(=O)N[C@@H](CC(N)=O)C(=O)N[C@@H](CCC(=O)O)C(=O)N[C@@H](CCC(=O)O)C(=O)N[C@@H](CCC(=O)O)C(=O)N[C@@H](CC(C)C)C(=O)N[C@@H](CCCCN)C(=O)N[C@@H](CCCCN)C(=O)N[C@@H](CC(C)C)C(=O)N[C@@H](CCC(=O)O)C(=O)N[C@@H](CCCCNC(=O)CCC(=O)O[C@H]1CC[C@@]2(C)C(=CC[C@H]3[C@@H]4CC[C@H]([C@H](C)CCCC(C)C)[C@@]4(C)CC[C@@H]32)C1)C(N)=O)[C@@H](C)CC [LP-104] (Ac-WEEWEKKIEELEKKIEELLKKAEEQQKKNEEELKKLEK(Succinyl(4-O-cholesteryl))-NH2)	60.2 pM	14.5 pM
